# Values of other authors in US20250074936A1, “A PROCESS FOR ISOLATION OF SAPONINS UTTROSIDE B AND UTTROSIDE A FROM SOLANUM NIGRUM LINN” (COUNCIL OF SCIENTIFIC AND INDUSTRIAL RESEARCH AN INDIAN …, priority 2022, published 2025).
# Columns and labels:
# HCT-16 = HCT-16 cells; read-out: cytotoxicity towards HCT-16, IC50
# PC-12 = PC-12 cells; read-out: cytotoxicity towards PC-12, IC50
# HeLa cells = conditions: read-out: moderate cytotoxicity against HeLa cells, IC50
Structure (SMILES),IC50 (HCT-16) [µM],IC50 (PC-12) [µM],IC50 (HeLa cells) [µM]
C[C@H](CC[C@@]1(O)OC2C[C@H]3[C@@H]4CC[C@H]5C[C@@H](OC6OC(CO)C(OC7OC(CO)C(O)C(OC8OCC(O)C(O)C8O)C7OC7OC(CO)C(O)C(O)C7O)C(O)C6O)CC[C@]5(C)[C@H]4CC[C@]3(C)C2[C@@H]1C)COC1OC(CO)C(O)C(O)C1O (stereo partly drawn) [uttroside B],2.33,1.2,
CO[C@]1(CC[C@@H](C)COC2OC(CO)C(O)C(O)C2O)OC2C[C@H]3[C@@H]4CC[C@H]5C[C@@H](OC6OC(CO)C(OC7OC(CO)C(O)C(OC8OCC(O)C(O)C8O)C7OC7OC(CO)C(O)C(O)C7O)C(O)C6O)CC[C@]5(C)[C@H]4CC[C@]3(C)C2[C@@H]1C (stereo partly drawn) [uttroside A],,,15.4
